The values that follow come from patent publication US11071731B2, “Allosteric modulators of the mu opioid receptor” (Chiromics, LLC, priority 2017, dated 2021).

By EC50 is commonly meant the concentration giving half of the maximal effect.

Assay [1] addresses T1, mu opioid receptor (MOR) (Homo sapiens, UniProt P35372). The experiment in a line: PathHunter β-arrestin recruitment assay, PAM mode with EC20 endomorphin-1. It is filed as cell-based. Conditions: for EC50: read-out: β-arr. EC50. Summed up:
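β-Arrestin recruitment to the receptor was tracked by chemiluminescent β-galactosidase activity from complementing fragments (ED on receptor, EA on β-arrestin). Per-compound outputs were EC50 and percent maximal response.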
On the technique in general: Activated receptors often draw arrestin, which recruitment assays turn into a signal.

Assay [2] deals with T1, mu opioid receptor (MOR). The experiment in a line: Hit Hunter cAMP signaling assay (adenylyl cyclase inhibition), PAM mode with EC20 endomorphin-1. It is filed as cell-based.
The mark [3] stands for this setting: maximal response for β-arrestin recruitment.
Setting [4] is: cAMP EC50, adenylyl cyclase inhibition.
Setting [5] is: maximal response for adenylyl cyclase inhibition.
Setting [6] is: adenylyl cyclase inhibition, read-out: cAMP EC50.
The mark [7] stands for this setting: maximal response, β-arrestin recruitment.
Where [8] appears, read: maximal response, adenylyl cyclase inhibition.

T1 sequence (P35372 whole entry, the tested form may be a part): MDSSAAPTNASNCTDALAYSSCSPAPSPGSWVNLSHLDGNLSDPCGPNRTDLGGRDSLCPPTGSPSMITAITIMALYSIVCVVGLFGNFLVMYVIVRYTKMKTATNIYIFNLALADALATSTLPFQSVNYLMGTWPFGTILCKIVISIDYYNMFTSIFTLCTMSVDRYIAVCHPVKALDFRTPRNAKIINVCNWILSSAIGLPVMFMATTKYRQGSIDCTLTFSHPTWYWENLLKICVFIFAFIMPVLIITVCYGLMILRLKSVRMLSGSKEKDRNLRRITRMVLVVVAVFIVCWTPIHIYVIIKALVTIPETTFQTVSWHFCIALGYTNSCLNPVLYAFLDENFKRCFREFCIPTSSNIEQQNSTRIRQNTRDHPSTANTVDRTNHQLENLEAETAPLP

Take `Fc1cnc(Cl)nc1N1CCCCC1c1cccc(C(F)(F)F)c1` (stereo not shown) [compound 7]: the “β-arr Max. Resp.” value in assay [1] (setting [3]) is reported as “F (F represents a maximal response of > 60%)”. The EC50 in assay [1] (β-arrestin recruitment) and in assay [2] (setting [4]) was less than 700 nM throughout. Further, in assay [2] (setting [5]), the “cAMP Max. Resp.” value is on record as “F (F represents a maximal response of > 60%)”.
For the compound `COc1ccc(C2CCCCN2c2ncnc(Cl)c2F)cc1Br` (stereo not shown) [compound 228], in assay [1] (setting [3]), the “β-arr Max. Resp.” value is “F (F represents a maximal response of > 60%)”. The EC50 in assay [1] (β-arrestin recruitment) and in assay [2] (setting [4]) was greater than 2100 nM in each case. Also, in assay [2] (setting [5]), the “cAMP Max. Resp.” value was “F (F represents a maximal response of > 60%)”.
Regarding `FC(F)(F)c1cccc(C2CCCCN2Cc2cc(Cl)ccc2Cl)n1` (stereo not shown) [compound 176], in assay [1] (setting [3]), the “β-arr Max. Resp.” value is recorded as “F (F represents a maximal response of > 60%)”. The EC50 in assay [1] (β-arrestin recruitment) and in assay [2] (setting [4]) was 700 to 2100 nM in each case. The “cAMP Max. Resp.” value in assay [2] (setting [5]) was “F (F represents a maximal response of > 60%)”.
For the compound `O=S(=O)(c1ccc(Cl)cc1)N1CCCCC1c1ccc(C(F)(F)F)cn1` (racemic) [compound 65], the “β-arr Max. Resp.” value in assay [1] (setting [3]) was “F (F represents a maximal response of > 60%)”. Further, the EC50 in assay [1] (β-arrestin recruitment) and in assay [2] (setting [6]) was greater than 2100 nM each time. Besides, the “cAMP Max. Resp.” value in assay [2] (setting [5]) was “E (E represents a maximal response of 40-60%)”.
Take `O=c1[nH]c2ccc(C3CCCCN3c3nc(Cl)ncc3F)cc2o1` (stereo not shown) [compound 279]: the “β-arr Max. Resp.” value in assay [1] (setting [3]) is listed as “D (D represents a maximal response of < 40%)”. The EC50 in assay [1] (β-arrestin recruitment) and in assay [2] (setting [4]) was greater than 2100 nM each time. For the same compound, the “cAMP Max. Resp.” value in assay [2] (setting [5]) is given as “F (F represents a maximal response of > 60%)”.
As to `O=S(=O)(c1ccc(Cl)cc1)N1CCCCC1c1cc(F)cc(C(F)(F)F)c1` (racemic) [compound 50], the “β-arr Max. Resp.” value in assay [1] (setting [3]) is recorded as “F (F represents a maximal response of > 60%)”. In addition, the results for the half-maximal effective concentration (EC50) in assay [1] (β-arrestin recruitment) and in assay [2] (setting [6]) were greater than 2100 nM and 700 to 2100 nM, respectively. Besides, the “cAMP Max. Resp.” value in assay [2] (setting [5]) is on record as “D (D represents a maximal response of < 40%)”.
For `COc1ccc(C2CCCCN2Cc2cccc(Cl)c2F)cc1Br` (stereo not shown) [compound 245], the “β-arr Max. Resp.” value in assay [1] (setting [3]) is on record as “D (D represents a maximal response of < 40%)”. The concentration giving a half-maximal response (EC50) in assay [1] (β-arrestin recruitment) and in assay [2] (setting [4]) was greater than 2100 nM throughout. The “cAMP Max. Resp.” value in assay [2] (setting [5]) is given as “D (D represents a maximal response of < 40%)”.
`O=S(=O)(c1ccc(Cl)cc1)N1C2CCC(C2)C1c1ccc(F)c(Br)c1` (stereo not shown) [Compound 178]: the “β-arr Max. Resp.” value in assay [1] (setting [3]) is reported as “F (F represents a maximal response of > 60%)”. The EC50 was less than 700 nM in assay [1] (β-arrestin recruitment) and 700 to 2100 nM in assay [2] (setting [6]). Besides, in assay [2] (setting [5]), the “cAMP Max. Resp.” value was “D (D represents a maximal response of < 40%)”.
As to `O=S(=O)(c1cccc(Cl)c1)N1C2CCC(C2)C1c1ccc(F)c(Br)c1` (stereo not shown) [Compound 180], the “β-arr Max. Resp.” value in assay [1] (setting [3]) is on record as “F (F represents a maximal response of > 60%)”. Also, the EC50 in assay [1] (β-arrestin recruitment) and in assay [2] (setting [6]) was greater than 2100 nM each time. Besides, the “cAMP Max. Resp.” value in assay [2] (setting [5]) is “E (E represents a maximal response of 40-60%)”.
With `Fc1ccc(C2CCCCN2c2nc(Cl)ncc2F)cn1` (stereo not shown) [compound 297], the “β-arr Max. Resp.” value in assay [1] (setting [3]) was “E (E represents a maximal response of 40-60%)”. Moreover, the EC50 in assay [2] was greater than 2100 nM. Moreover, the “cAMP Max. Resp.” value in assay [2] (setting [5]) is “E (E represents a maximal response of 40-60%)”.
In the case of `CC1CCN(S(=O)(=O)c2ccc(Cl)cc2)C1c1ccc2c(c1)CCO2` (mixture of isomers) [Compound 91], the “β-arr Max. Resp.” value in assay [1] (setting [3]) was “F (F represents a maximal response of > 60%)”. Moreover, the EC50 in assay [1] (β-arrestin recruitment) and in assay [2] (setting [6]) was greater than 2100 nM each time. Also, the “cAMP Max. Resp.” value in assay [2] (setting [5]) was “D (D represents a maximal response of < 40%)”.
Regarding `Fc1cccc(C2CCCCN2c2nccc(Cl)n2)n1` (stereo not shown) [compound 260], in assay [1] (setting [3]), the “β-arr Max. Resp.” value is recorded as “D (D represents a maximal response of < 40%)”. Moreover, the EC50 in assay [1] (β-arrestin recruitment) and in assay [2] (setting [4]) was greater than 2100 nM in each case. Also, the “cAMP Max. Resp.” value in assay [2] (setting [5]) was “D (D represents a maximal response of < 40%)”.
Turning to `Fc1cnc(Cl)nc1N1CCCCC1c1ccc(Cl)c(C(F)(F)F)c1` (single isomer, unassigned) [compound 345], in assay [1] (setting [3]), the “β-arr Max. Resp.” value is reported as “D (D represents a maximal response of < 40%)”. Besides, the EC50 in assay [1] (β-arrestin recruitment) and in assay [2] (setting [4]) was less than 700 nM each time. Also, in assay [2] (setting [5]), the “cAMP Max. Resp.” value is listed as “D (D represents a maximal response of < 40%)”.
Consider `Fc1cccc(C2CCCCN2c2cc(Cl)ncc2F)n1` (stereo not shown) [compound 262], for which the “β-arr Max. Resp.” value in assay [1] (setting [3]) was “E (E represents a maximal response of 40-60%)”. Besides, the EC50 in assay [1] (β-arrestin recruitment) and in assay [2] (setting [4]) was greater than 2100 nM each time. Moreover, the “cAMP Max. Resp.” value in assay [2] (setting [5]) is listed as “D (D represents a maximal response of < 40%)”.
In the case of `Fc1cc(C2COCCN2c2nc(Cl)ncc2F)cc(C(F)(F)F)c1` (single isomer, unassigned) [Compound 347], the “β-arr Max. Resp.” value in assay [1] (setting [3]) is listed as “D (D represents a maximal response of < 40%)”. Moreover, the half-maximal effective concentration (EC50) in assay [1] (β-arrestin recruitment) and in assay [2] (setting [6]) was less than 700 nM each time. Besides, in assay [2] (setting [5]), the “cAMP Max. Resp.” value is “D (D represents a maximal response of < 40%)”.
For the compound `Fc1cnc(Cl)nc1N1CCCCC1c1cccc2ncnn12` (stereo not shown) [compound 389], the “β-arr Max. Resp.” value in assay [1] (setting [3]) is reported as “D (D represents a maximal response of < 40%)”. Further, the EC50 in assay [1] (β-arrestin recruitment) and in assay [2] (setting [4]) was less than 700 nM throughout. Also, in assay [2] (setting [5]), the “cAMP Max. Resp.” value was “D (D represents a maximal response of < 40%)”.
For `[2H]C1(c2ccc(F)c(Br)c2)C(F)CCCN1S(=O)(=O)c1cc(F)ccc1F` (stereo not shown) [Compound 38], the “β-arr Max. Resp.” value in assay [1] (setting [3]) is “F (F represents a maximal response of > 60%)”. Further, the “cAMP Max. Resp.” value in assay [2] (setting [5]) was “D (D represents a maximal response of < 40%)”.
For `Fc1c(Cl)cccc1C1CCCCN1c1ccnc(Cl)n1` (stereo not shown) [compound 405], the “β-arr Max. Resp.” value in assay [1] (setting [3]) is “D (D represents a maximal response of < 40%)”. Further, the EC50 in assay [1] (β-arrestin recruitment) and in assay [2] (setting [4]) was less than 700 nM each time. Besides, in assay [2] (setting [5]), the “cAMP Max. Resp.” value was “D (D represents a maximal response of < 40%)”.
As to `Fc1cc(Cl)cc(C2CCCCN2c2nc(Cl)ncc2F)c1` (single isomer, unassigned) [compound 420], the “β-arr Max. Resp.” value in assay [1] (setting [7]) is recorded as “D (D represents a maximal response of < 40%)”. The EC50 in assay [1] (β-arrestin recruitment) is less than 700 nM. In addition, the “cAMP Max. Resp.” value in assay [2] (setting [8]) is “D (D represents a maximal response of < 40%)”.
`O=S1(=O)CCN(c2nc(Cl)ncc2F)C(c2cc(F)cc(C(F)(F)F)c2)C1` (racemic) [Compound 303]: the “β-arr Max. Resp.” value in assay [1] (setting [3]) is recorded as “D (D represents a maximal response of < 40%)”. Further, the EC50 in assay [1] (β-arrestin recruitment) and in assay [2] (setting [6]) was greater than 2100 nM throughout. For the same compound, in assay [2] (setting [5]), the “cAMP Max. Resp.” value is given as “E (E represents a maximal response of 40-60%)”.
Take `Fc1cnc(Cl)nc1N1CCCCC1c1cccc2nccn12` (stereo not shown) [compound 284]: the “β-arr Max. Resp.” value in assay [1] (setting [3]) is “D (D represents a maximal response of < 40%)”. The EC50 in assay [1] (β-arrestin recruitment) and in assay [2] (setting [4]) was greater than 2100 nM throughout. In addition, the “cAMP Max. Resp.” value in assay [2] (setting [5]) is reported as “E (E represents a maximal response of 40-60%)”.
Take `CC1CC(c2cccc(C(F)(F)F)c2)N(c2nc(Cl)ncc2F)C1` (stereo not shown) [compound 448]: the “β-arr Max. Resp.” value in assay [1] (setting [7]) is given as “F (F represents a maximal response of > 60%)”. In addition, the half-maximal effective concentration (EC50) in assay [1] (β-arrestin recruitment) and in assay [2] (setting [6]) was greater than 2100 nM throughout. Moreover, the “cAMP Max. Resp.” value in assay [2] (setting [8]) is given as “D (D represents a maximal response of < 40%)”.
On to `COc1cccc(N2CCCCC2c2ccc(F)c(Cl)c2)c1` (stereo not shown) [compound 465], for which, in assay [1] (setting [7]), the “β-arr Max. Resp.” value is recorded as “E (E represents a maximal response of 40-60%)”. In addition, the concentration giving a half-maximal response (EC50) in assay [1] (β-arrestin recruitment) and in assay [2] (setting [4]) was greater than 2100 nM in each case. Also, the “cAMP Max. Resp.” value in assay [2] (setting [8]) is given as “D (D represents a maximal response of < 40%)”.
